Measurements as given in patent publication US7109193B2, “Tricyclic diazepines tocolytic oxytocin receptor antagonists” (Wyeth, priority 2001, dated 2006).

Molecular target: T1, human oxytocin receptor (Homo sapiens, UniProt P30559)
T1 construct: host or cells: CHO cells (pcDNA3.1 vector)
T1 sequence (P30559 1-389): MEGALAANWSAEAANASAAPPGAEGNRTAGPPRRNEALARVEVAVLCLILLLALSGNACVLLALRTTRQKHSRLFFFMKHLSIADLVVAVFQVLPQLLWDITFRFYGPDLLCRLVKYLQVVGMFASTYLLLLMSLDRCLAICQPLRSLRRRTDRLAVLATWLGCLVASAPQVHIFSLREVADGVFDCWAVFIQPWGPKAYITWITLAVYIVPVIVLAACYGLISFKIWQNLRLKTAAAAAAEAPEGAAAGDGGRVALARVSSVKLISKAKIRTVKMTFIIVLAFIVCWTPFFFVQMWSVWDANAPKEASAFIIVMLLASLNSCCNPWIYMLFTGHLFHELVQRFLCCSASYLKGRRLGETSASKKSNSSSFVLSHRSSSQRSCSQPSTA
Experiment: Oxytocin binding in Chinese Hamster Ovary cell membranes expressing human oxytocin receptors
Conditions: 100 nM, CHO cell membranes, [3H]oxytocin, values without parentheses, read-out: OT % inhibition @ 100% nM

Row | inhibition at 0.1 µM [%] | SMILES
1 | 82 | Cc1cc(C(=O)N2Cc3ccc(C(=O)N4CCN(CCN5CCOCC5)CC4)n3Cc3ccccc32)ccc1-c1ccccc1C(F)(F)F [Example 216, (10-{[2-Methyl-2′-(trifluoromethyl)[1,1′-biphenyl]-4-yl]carbonyl}-10,11-dihydro-5H -pyrrolo[2,1-c][1,4]benzodiazepin-3-yl){4-[2-(4-morpholinyl)ethyl]-1-piperazinyl}methanone]
2 | 77 | C=CCN1CCN(C(=O)c2ccc3n2Cc2ccccc2N(C(=O)c2ccc(-c4cccc(OC)c4)c(OC)c2)C3)CC1 [Example 228, (4-Allyl-1-piperazinyl){10-[(2,3′-dimethoxy[1,1′-biphenyl]-4-yl)carbonyl]-10,11-dihydro-5H -pyrrolo[2,1-c][1,4]benzodiazepin-3-yl}methanone]
3 | 19 | C=CCN1CCN(C(=O)c2ccc3n2Cc2ccccc2N(C(=O)c2ccc(-c4cccc5ccccc45)cc2Cl)C3)CC1 [Example 229, (4-Allyl-1-piperazinyl){10-[2-chloro-4-(1-naphthyl)benzoyl]-10,11-dihydro-5H-pyrrolo[2,1-c][1,4]benzodiazepin-3-yl}methanone]
4 | 20 | O=C(NCCN1CCCCC1)c1ccc2n1Cc1ccccc1N(C(=O)c1ccc(-c3cccc4ccccc34)cc1Cl)C2 [Example 160, 10-[2-Chloro-4-(1-naphthyl)benzoyl]-N-[2-(1-piperidinyl)ethyl]-10,11-dihydro-5H-pyrrolo[2,1-c][1,4]benzodiazepine-3-carboxamide]
5 | 67 | C=CCN1CCN(C(=O)c2ccc3n2Cc2ccccc2N(C(=O)c2ccc(-c4ccccc4C(F)(F)F)c(C)c2)C3)CC1 [Example 230, (4-Allyl-1-piperazinyl)(10-{[2-methyl-2′-(trifluoromethyl)[1,1′-biphenyl]-4-yl]carbonyl}-10,11-dihydro-5H-pyrrolo[2,1-c][1,4]benzodiazepin-3-yl)methanone]
6 | 73 | COc1cccc(-c2cc(OC)c(C(=O)N3Cc4ccc(C(=O)N5CCN(CCN(C)C)CC5)n4Cc4ccccc43)cc2Cl)c1 [Example 202, {10-[(6-Chloro-3,3′-dimethoxy[1,1′-biphenyl]-4-yl)carbonyl]-10,11-dihydro-5H-pyrrolo[2,1-c][1,4]benzodiazepin-3-yl}{4-[2-(dimethylamino)ethyl]-1-piperazinyl}methanone]
7 | 94 | Cc1ccccc1-c1ccc(C(=O)N2Cc3ccc(C(=O)N4CCN(CCN(C)C)CC4)n3Cc3ccccc32)cc1C [Example 198, {4-[2-(Dimethylamino)ethyl]-1-piperazinyl}{10-[(2,2′-dimethyl[1,1′-biphenyl]-4-yl)carbonyl]-10,11-dihydro-5H-pyrrolo[2,1-c][1,4]benzodiazepin-3-yl}methanone]
8 | 84 | C=CCN1CCN(C(=O)c2ccc3n2Cc2ccccc2N(C(=O)c2ccc(-c4ccccc4OC)c(C)c2)C3)CC1 [Example 222, (4-Allyl-1-piperazinyl){10-[(2′-methoxy-2-methyl[1,1′-biphenyl]-4-yl)carbonyl]-10,11-dihydro-5H-pyrrolo[2,1-c][1,4]benzodiazepin-3-yl}methanone]
9 | 98 | COc1cc(-c2ccccc2C)c(Cl)cc1C(=O)N1Cc2ccc(C(=O)N3CCN(CCN4CCOCC4)CC3)n2Cc2ccccc21 [Example 217, {10-[(6-Chloro-3-methoxy-2′-methyl[1,1′-biphenyl]-4-yl)carbonyl]-10,11-dihydro-5H -pyrrolo[2,1-c][1,4]benzodiazepin-3-yl}{4-[2-(4-morpholinyl)ethyl]-1-piperazinyl}methanone]
10 | 36 | COc1cccc(-c2cc(OC)c(C(=O)N3Cc4ccc(C(=O)NCCC5CCCN5C)n4Cc4ccccc43)cc2Cl)c1 (stereo not drawn) [Example 169, 10-[(6-Chloro-3,3′-dimethoxy[1,1′-biphenyl]-4-yl)carbonyl]-N-[2-(1-methyl-2-pyrrolidinyl)ethyl]-10,11-dihydro-5H-pyrrolo[2,1-c][1,4]benzodiazepine-3-carboxamide]
11 | 82 | Cc1ccccc1-c1ccc(C(=O)N2Cc3ccc(C(=O)NCCC4CCCN4C)n3Cc3ccccc32)cc1C (stereo not drawn) [Example 163, 10-[(2,2′-Dimethyl[1,1′-biphenyl]-4-yl)carbonyl]-N-[2-(1-methyl-2-pyrrolidinyl)ethyl]-10,11-dihydro-5H-pyrrolo[2,1-c][1,4]benzodiazepine-3-carboxamide]
12 | 87 | C=CCN1CCN(C(=O)c2ccc3n2Cc2ccccc2N(C(=O)c2ccc(-c4ccccc4C)c(OC)c2)C3)CC1 [Example 225, (4-Allyl-1-piperazinyl){10-[(2-methoxy-2′-methyl[1,1′-biphenyl]-4-yl)carbonyl]-10,11-dihydro-5H-pyrrolo[2,1-c][1,4]benzodiazepin-3-yl}methanone]
13 | 97 | COc1cccc(-c2ccc(C(=O)N3Cc4ccc(C(=O)N(C)C5CCN(C)C5)n4Cc4ccccc43)cc2C)c1 (stereo not drawn) [Example 186, 10-[(3′-Methoxy-2-methyl[1,1′-biphenyl]-4-yl)carbonyl]-N-methyl-N-(1-methyl-3-pyrrolidinyl)-10,11-dihydro-5H-pyrrolo[2,1-c][1,4]benzodiazepine-3-carboxamide]
14 | 56 | Cc1cc(C(=O)N2Cc3ccc(C(=O)N4CCN(C(=O)OC(C)(C)C)CC4)n3Cc3ccccc32)ccc1-c1ccccc1C(F)(F)F [Example 6, 4-[[10,11-Dihydro-10-[[2-methyl-2′-trifluoromethyl[1,1′-biphenyl]-4-yl]carbonyl]-5H-pyrrolo[2,1-c][1,4]benzodiazepin-3-yl]carbonyl]-1-piperazine-carboxylic acid, tert-butyl ester]
15 | 70 | COc1cc(C(=O)N2Cc3ccc(C(=O)N4CCN(CCN5CCOCC5)CC4)n3Cc3ccccc32)ccc1-c1cccc2ccccc12 [Example 213, {10-[3-Methoxy-4-(1-naphthyl)benzoyl]-10,11-dihydro-5H-pyrrolo[2,1-c][1,4]benzodiazepin-3-yl}{4-[2-(4-morpholinyl)ethyl]-1-piperazinyl}methanone]
16 | 82 | COc1ccccc1-c1ccc(C(=O)N2Cc3ccc(C(=O)N4CCN(C(C)C)CC4)n3Cc3ccccc32)cc1 [Example 234, (4-Isopropyl-1-piperazinyl){10-[(2′-methoxy[1,1′-biphenyl]-4-yl)carbonyl]-10,11-dihydro-5H-pyrrolo[2,1-c][1,4]benzodiazepin-3-yl}methanone]
17 | 81 | Cc1ccccc1-c1ccc(C(=O)N2Cc3ccc(C(=O)N4CCN(CCN5CCOCC5)CC4)n3Cc3ccccc32)cc1 [Example 209, {10-[(2′-Methyl[1,1′-biphenyl]-4-yl)carbonyl]-10,11-dihydro-5H-pyrrolo[2,1-c][1,4]benzodiazepin-3-yl}{4-[2-(4-morpholinyl)ethyl]-1-piperazinyl}methanone]
18 | 64 | COc1ccccc1-c1ccc(C(=O)N2Cc3ccc(C(=O)NCCC4CCCN4C)n3Cc3ccccc32)cc1 (stereo not drawn) [Example 165, 10-[(2′-Methoxy[1,1′-biphenyl]-4-yl)carbonyl]-N-[2-(1-methyl-2-pyrrolidinyl)ethyl]-10,11-dihydro-5H-pyrrolo[2,1-c][1,4]benzodiazepine-3-carboxamide]
19 | 98 | COc1ccccc1-c1ccc(C(=O)N2Cc3ccc(C(=O)N(C)C4CCN(C)CC4)n3Cc3ccccc32)cc1C [Example 175, 10-[(2′-Methoxy-2-methyl[1,1′-biphenyl]-4-yl)carbonyl]-N-methyl-N-(1-methyl-4-piperidinyl)-10,11-dihydro-5H-pyrrolo[2,1-c][1,4]benzodiazepine-3-carboxamide]
20 | 50 | COc1ccccc1-c1ccc(C(=O)N2Cc3ccc(C(=O)NCCN4CCCCC4)n3Cc3ccccc32)cc1OC [Example 158, 10-[(2,2′-Dimethoxy[1,1′-biphenyl]-4-yl)carbonyl]-N-[2-(1-piperidinyl)ethyl]-10,11-dihydro-5H-pyrrolo[2,1-c][1,4]benzodiazepine-3-carboxamide]
21 | 64 | COc1cccc(-c2ccc(C(=O)N3Cc4ccc(C(=O)N5CCN(C(C)C)CC5)n4Cc4ccccc43)cc2C)c1 [Example 235, (4-Isopropyl-1-piperazinyl){10-[(3′-methoxy-2-methyl[1,1′-biphenyl]-4-yl)carbonyl]-10,11-dihydro-5H-pyrrolo[2,1-c][1,4]benzodiazepin-3-yl}methanone]
22 | 71 | C=CCN1CCN(C(=O)c2ccc3n2Cc2ccccc2N(C(=O)c2ccc(-c4cccc(OC)c4)c(C)c2)C3)CC1 [Example 223, (4-Allyl-1-piperazinyl){10-[(3′-methoxy-2-methyl[1,1′-biphenyl]-4-yl)carbonyl]-10,11-dihydro-5H-pyrrolo[2,1-c][1,4]benzodiazepin-3-yl}methanone]
23 | 62 | COc1cc(C(=O)N2Cc3ccc(C(=O)N4CCN(CCN(C)C)CC4)n3Cc3ccccc32)ccc1-c1cccc2ccccc12 [Example 203, {4-[2-(Dimethylamino)ethyl]-1-piperazinyl}{10-[3-methoxy-4-(1-naphthyl)benzoyl]-10,11-dihydro-5H-pyrrolo[2,1-c][1,4]benzodiazepin-3-yl}methanone]
24 | 61 | COc1cccc(-c2cc(OC)c(C(=O)N3Cc4ccc(C(=O)N5CCN(C(C)C)CC5)n4Cc4ccccc43)cc2Cl)c1 [Example 239, {10-[(6-Chloro-3,3′-dimethoxy[1,1′-biphenyl]-4-yl)carbonyl]-10,11-dihydro-5H-pyrrolo[2,1-c][1,4]benzodiazepin-3-yl}(4-isopropyl-1-piperazinyl)methanone]
